{"source": "patent US20050272662A1", "about": "“Self-assembled peptide-amphiphiles & self-assembled peptide nanofiber networks presenting multiple signals” (priority 2002, published 2005)", "settings": "concentration about 10 mg/mL", "note": "Residues, ends and D or L forms follow the SMILES beside them. *: point of attachment. Palmitoyl = CCCCCCCCCCCCCCCC(=O)*", "protocol": "The two molecules can be dissolved in pH-adjusted water at a concentration of about 2-30 mg/ml, and preferably about 10 mg/mL.\nThe molecules were then dissolved in water at a concentration of 10 mg/mL, adjusting the pH to improve solubility. […] In the case of molecule 1, the pH was raised to about pH 8 with 2M and 100 mM KOH, then back-titrated to pH 7."}
{"compound": "CCCCCCCCCCCCCCCC(=O)N[C@@H](C)C(=O)N[C@@H](C)C(=O)N[C@@H](C)C(=O)N[C@@H](C)C(=O)NCC(=O)NCC(=O)NCC(=O)N[C@@H](CCCCN)C(=O)N[C@@H](Cc1ccc(O)cc1)C(=O)N[C@H](C(=O)NCC(=O)N[C@@H](CO)C(=O)N[C@@H](CCCNC(=N)N)C(N)=O)[C@@H](C)CC", "note": "[Molecule 2] (Palmitoyl-AAAAGGGKYIGSR-NH2)", "values": [{"measurement": "appearance of solution in pH-adjusted water", "result": "translucent"}]}
